Some test systems named below: EKVX NSCLC; OVCAR-8 ovarian; 786-0 renal; SK-MEL-5 melanoma; UACC-257 melanoma; U251 CNS; MDA-MB-231 breast; RXF 393 renal; HCT-15 colon; NCI-H522 lung; SK-OV-3 ovarian.
What all share (assay): NCI tumour cell line growth inhibition, 48 h

The structures appear in SMILES notation.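 96-well plates; 48 h exposure; 5 concentrations. Endpoints by linear interpolation between flanking doses. Not reached: highest tested concentration assigned. At the GI50, growth is halved. TGI marks complete inhibition of growth.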

`COc1ccc(N2C(=O)C3c4[nH]c5ccc(Br)cc5c4C4CCC(C(C)(C)C)CC4C3C2=O)cc1` (configuration not stated): the TGI in the experiment on EKVX NSCLC, with OVCAR-8 ovarian, in the experiment on 786-0 renal, with SK-MEL-5 melanoma, in the experiment with UACC-257 melanoma and in the experiment on U251 CNS was over 100 µM in each case. The TGI with MDA-MB-231 breast, with RXF 393 renal, in the experiment with HCT-15 colon, in the experiment on NCI-H522 lung and in the experiment with SK-OV-3 ovarian was over 100 µM each time.
Take `CC1=C(c2ccccc2)NC(=S)C(C)C(c2ccccc2)=N1` (configuration not stated): the TGI in the experiment with EKVX NSCLC was over 100 µM; with OVCAR-8 ovarian, over 100 µM; in the experiment with 786-0 renal it was over 100 µM; in the experiment with SK-MEL-5 melanoma, 82.9 µM; in the experiment on UACC-257 melanoma, over 100 µM; in the experiment with U251 CNS, over 100 µM. Also, the TGI in the experiment with MDA-MB-231 breast was over 100 µM; with RXF 393 renal it was 61.6 µM; with HCT-15 colon, over 100 µM; in the experiment on SK-OV-3 ovarian, over 100 µM.
For `CCOC(=O)C(Cc1ccc(OC(=O)c2ccc(OC)cc2)cc1)NC(=O)C(F)(F)F` (configuration not stated), the TGI in the experiment on EKVX NSCLC, in the experiment on OVCAR-8 ovarian, in the experiment on 786-0 renal, in the experiment on SK-MEL-5 melanoma, in the experiment with UACC-257 melanoma and with U251 CNS was over 100 µM throughout. In addition, the TGI in the experiment on MDA-MB-231 breast was over 100 µM; with RXF 393 renal it was 73.2 µM; with HCT-15 colon, over 100 µM; in the experiment on NCI-H522 lung, over 100 µM; with SK-OV-3 ovarian, over 100 µM.
Regarding `CCOC(=O)C1c2[nH]c3ccccc3c2CCN1C(=O)c1ccc(OC)o1` (configuration not stated), the TGI in the experiment on EKVX NSCLC, with OVCAR-8 ovarian, in the experiment on 786-0 renal, in the experiment with SK-MEL-5 melanoma, with UACC-257 melanoma and with U251 CNS was over 10 µM throughout. In addition, the TGI in the experiment on MDA-MB-231 breast, in the experiment on RXF 393 renal, in the experiment with HCT-15 colon, in the experiment with NCI-H522 lung and with SK-OV-3 ovarian was over 10 µM throughout.
For the molecule `OC(c1ccc(C(F)(F)F)cc1)C(F)(F)c1nc2ccccc2o1` (configuration not stated), the TGI with EKVX NSCLC, in the experiment with OVCAR-8 ovarian, in the experiment on 786-0 renal, in the experiment with SK-MEL-5 melanoma, with UACC-257 melanoma and in the experiment on U251 CNS was over 100 µM each time. In addition, the TGI with MDA-MB-231 breast, in the experiment with RXF 393 renal, with HCT-15 colon and in the experiment with SK-OV-3 ovarian was over 100 µM in each case.
As for `O=C1C(=O)N(c2cccc(C(F)(F)F)c2)C(=S)N1c1ccccc1`, the TGI in the experiment with EKVX NSCLC is over 100 µM; in the experiment with OVCAR-8 ovarian it was over 100 µM; in the experiment with 786-0 renal, over 100 µM; in the experiment on SK-MEL-5 melanoma, 32 µM; in the experiment with UACC-257 melanoma, 71.8 µM; in the experiment on U251 CNS, over 100 µM. The TGI with MDA-MB-231 breast is 57.2 µM; in the experiment on RXF 393 renal, over 100 µM; in the experiment with HCT-15 colon, 40.7 µM; in the experiment on NCI-H522 lung, 28 µM; in the experiment on SK-OV-3 ovarian, 70.4 µM.
Take `COc1ccc(/C=C2\CCS(=O)(=O)c3ccccc3C2=O)cc1`: the TGI with EKVX NSCLC turned out to be 46.4 µM; with OVCAR-8 ovarian it was 53.4 µM; in the experiment with 786-0 renal, 34.6 µM; in the experiment with UACC-257 melanoma, 56.5 µM; in the experiment with U251 CNS it was 37.7 µM; with MDA-MB-231 breast, 75.3 µM. Besides, the figures for the TGI with RXF 393 renal, with HCT-15 colon and in the experiment with SK-OV-3 ovarian were 46.4 µM, 43.1 µM and over 100 µM, respectively.
As to `CCOC(=O)C1=CCOc2cc(N(C)C)ccc21`, the TGI with EKVX NSCLC, in the experiment on OVCAR-8 ovarian, in the experiment on 786-0 renal, with SK-MEL-5 melanoma, in the experiment with UACC-257 melanoma and in the experiment with U251 CNS was over 100 µM throughout. For the same molecule, the TGI in the experiment on MDA-MB-231 breast, with RXF 393 renal, with HCT-15 colon, in the experiment on NCI-H522 lung and in the experiment on SK-OV-3 ovarian was over 100 µM throughout.
As for `COC(=O)C1(C#N)C(C)(C)N=C(c2ccccc2)C12CCCCC2` (configuration not stated), the TGI with EKVX NSCLC, with OVCAR-8 ovarian, in the experiment with 786-0 renal, in the experiment with SK-MEL-5 melanoma, in the experiment with UACC-257 melanoma and in the experiment with U251 CNS was over 100 µM each time. Besides, the TGI in the experiment on MDA-MB-231 breast, in the experiment on RXF 393 renal, with HCT-15 colon, in the experiment on NCI-H522 lung and with SK-OV-3 ovarian was over 100 µM in each case.
As to `Cc1cc(Cc2cc(C)c(NC(=O)C(=O)C3CCC4=C(SC5C=CC=CC5N4)C3=O)c(C(C)C)c2)cc(C(C)C)c1NC(=O)C(=O)C1CCC2=C(SC3C=CC=CC3N2)C1=O` (configuration not stated), the TGI in the experiment on EKVX NSCLC, in the experiment with OVCAR-8 ovarian, in the experiment on 786-0 renal, in the experiment on SK-MEL-5 melanoma, in the experiment on UACC-257 melanoma and in the experiment on U251 CNS was over 100 µM each time. Further, the TGI in the experiment with MDA-MB-231 breast was over 100 µM; in the experiment on RXF 393 renal, over 100 µM; in the experiment on HCT-15 colon it was over 100 µM; with NCI-H522 lung, 67.2 µM; in the experiment with SK-OV-3 ovarian it was over 100 µM.
On to `Cc1c2c(c(O)c3c(O)cccc13)C(=O)C1(O)C(O)=C(C(=O)NCNc3ccc(C(N)=O)cn3)C(=O)C(N(C)C)C1C2` (configuration not stated), for which the TGI is over 100 µM in the experiment on EKVX NSCLC; 35.5 µM in the experiment on OVCAR-8 ovarian; over 100 µM in the experiment on 786-0 renal; 11.2 µM in the experiment on SK-MEL-5 melanoma; over 100 µM in the experiment with UACC-257 melanoma; 18.5 µM in the experiment with U251 CNS. Besides, the TGI in the experiment on MDA-MB-231 breast was over 100 µM; in the experiment on RXF 393 renal, 20.1 µM; in the experiment with HCT-15 colon, 8.56 µM; in the experiment on SK-OV-3 ovarian it was 8.78 µM.
As for `O=C(Nc1ccc(-n2ccc3c(NC(=O)c4ccccc4)ncnc32)cc1)Nc1ccc(Cl)c(Cl)c1`, the GI50 in the experiment with EKVX NSCLC is 7.24 µM; in the experiment on OVCAR-8 ovarian, 2380 nM; in the experiment with SK-MEL-5 melanoma, 7.05 µM; in the experiment with UACC-257 melanoma, 3.57 µM; with U251 CNS it was 942 nM; with MDA-MB-231 breast it was 4.11 µM. Further, the GI50 with RXF 393 renal is 6.48 µM; in the experiment with HCT-15 colon it was 1740 nM; in the experiment on NCI-H522 lung it was 1280 nM. In addition, the TGI in the experiment with EKVX NSCLC was 21 µM; in the experiment with OVCAR-8 ovarian, 8.6 µM; in the experiment with SK-MEL-5 melanoma, 15.1 µM; in the experiment on UACC-257 melanoma, 10.8 µM; in the experiment with U251 CNS, 2.29 µM; in the experiment with MDA-MB-231 breast, 11 µM. Moreover, the TGI came to 13.3 µM in the experiment on RXF 393 renal, 6.97 µM with HCT-15 colon and 7.34 µM with NCI-H522 lung.
`O=c1[nH]nc(Cc2c[nH]c3ccccc23)o1`: the TGI in the experiment with EKVX NSCLC, in the experiment on OVCAR-8 ovarian, with 786-0 renal, in the experiment with SK-MEL-5 melanoma, in the experiment on UACC-257 melanoma and in the experiment on U251 CNS was over 100 µM each time. The TGI with MDA-MB-231 breast, with RXF 393 renal, in the experiment with HCT-15 colon and in the experiment with NCI-H522 lung was over 100 µM each time.
`CCOC(=O)C1(C(=O)OCC)OC(C)=NC1(C(=O)OC)C(=O)OC`: the TGI in the experiment on EKVX NSCLC, in the experiment with OVCAR-8 ovarian, with 786-0 renal, in the experiment on SK-MEL-5 melanoma, in the experiment on UACC-257 melanoma and with U251 CNS was over 100 µM in each case. In addition, the TGI in the experiment with MDA-MB-231 breast, with RXF 393 renal, in the experiment on HCT-15 colon and with SK-OV-3 ovarian was over 100 µM throughout.
As to `NC(=O)NCCCC(NC(=O)OCCCCCCn1ccc(=O)[nH]c1=O)C(=O)O` (configuration not stated), the TGI with EKVX NSCLC, in the experiment on OVCAR-8 ovarian, in the experiment with 786-0 renal, with UACC-257 melanoma, in the experiment on U251 CNS and in the experiment with MDA-MB-231 breast was over 100 µM each time. For the same molecule, the TGI in the experiment on RXF 393 renal, with HCT-15 colon and in the experiment on SK-OV-3 ovarian was over 100 µM in each case.
As to `COc1ccc(C2SCC(=O)N2NC(=O)c2ccc(NC(C)=O)cc2)c(OC)c1` (configuration not stated), the TGI in the experiment on EKVX NSCLC, in the experiment on OVCAR-8 ovarian, in the experiment on 786-0 renal, with SK-MEL-5 melanoma, with UACC-257 melanoma and in the experiment on U251 CNS was over 100 µM each time. Moreover, the TGI with MDA-MB-231 breast, with RXF 393 renal, in the experiment with HCT-15 colon and in the experiment with SK-OV-3 ovarian was over 100 µM each time.
Take `CCOC(=O)c1cc2/c(=C\c3ccc(N(C)C)cc3)c3ccccc3n2[n+]1C`: the TGI in the experiment with EKVX NSCLC came out at 21.5 µM; with OVCAR-8 ovarian, 36.1 µM; with 786-0 renal, 15 µM; with SK-MEL-5 melanoma it was 4.04 µM; with UACC-257 melanoma it was 11.8 µM; in the experiment with U251 CNS, 11.8 µM. In addition, the TGI with MDA-MB-231 breast was 18.9 µM; with RXF 393 renal it was 4.78 µM; with HCT-15 colon it was 31.9 µM; with SK-OV-3 ovarian, 16.3 µM.
On to `Cc1ccc(/C(O)=C/C(=O)C(=O)NC23CC4CC(CC(C4)C2)C3)cc1`, for which the TGI with EKVX NSCLC, in the experiment with OVCAR-8 ovarian, in the experiment on 786-0 renal, in the experiment on SK-MEL-5 melanoma, in the experiment with UACC-257 melanoma and with MDA-MB-231 breast was over 10 µM throughout. Moreover, the TGI in the experiment with RXF 393 renal, with HCT-15 colon and in the experiment with SK-OV-3 ovarian was over 10 µM throughout.

The values are drawn from PubChem BioAssay (NCI).
